Columns and labels:
TSHR mutant M9 = experiment: cAMP production in HEK-EM 293 cells transiently expressing TSHR mutant M9; type: cell-based, human; settings: 30 μM compound
Protocol: HEK-EM 293 cells were grown in Dulbecco's modified Eagle's Medium (DMEM) supplemented with 10% fetal bovine serum, 100 units/ml penicillin and 10 μg/ml streptomycin (Life Technologies Inc.) at 37° C. in a humidified 5% CO2 incubator. Cells were transiently transfected with wild type TSHR and mutant receptors in 24-well plates (7.5×10^4 cells per well) with 0.4 μg DNA/well using FuGENE™ 6 reagent (Roche) according to the manufacturer's protocol.
The M9 mutant is described in Jaschke et al., J Biol Chem 281:9841-9844. The Y7.42A mutant was introduced into hTSHR-pcDNA3.1 via the QuickChange XL Site-Directed Mutagenesis kit (Stratagene). The construct was verified by sequencing (MWG Biotech).
Transiently transfected cells were cultured for 48 hours before the cAMP assay. HEK-EM 293 cells stably expressing TSHR, LHCGR or FSHR were seeded into 24-well plates with a density of 2.2×10^5 cells/well 24 hours before the cAMP assay. […] The intracellular cAMP content was determined with the cAMP Biotrak Enzymeimmunoassay (EIA) System (GE Healthcare). Data were analyzed using GraphPad Prism 4 for Windows. Receptor expression was measured as described in Jaschke et al., J Biol Chem 281:9841-9844.

TSHR [1] = target: T1, TSHR (Homo sapiens, UniProt P16473); experiment: inhibition of TSH-mediated cAMP response in HEK-EM 293 cells stably expressing TSHR; type: cell-based; design: expressed in transfected cells
T1 sequence (P16473 21-764): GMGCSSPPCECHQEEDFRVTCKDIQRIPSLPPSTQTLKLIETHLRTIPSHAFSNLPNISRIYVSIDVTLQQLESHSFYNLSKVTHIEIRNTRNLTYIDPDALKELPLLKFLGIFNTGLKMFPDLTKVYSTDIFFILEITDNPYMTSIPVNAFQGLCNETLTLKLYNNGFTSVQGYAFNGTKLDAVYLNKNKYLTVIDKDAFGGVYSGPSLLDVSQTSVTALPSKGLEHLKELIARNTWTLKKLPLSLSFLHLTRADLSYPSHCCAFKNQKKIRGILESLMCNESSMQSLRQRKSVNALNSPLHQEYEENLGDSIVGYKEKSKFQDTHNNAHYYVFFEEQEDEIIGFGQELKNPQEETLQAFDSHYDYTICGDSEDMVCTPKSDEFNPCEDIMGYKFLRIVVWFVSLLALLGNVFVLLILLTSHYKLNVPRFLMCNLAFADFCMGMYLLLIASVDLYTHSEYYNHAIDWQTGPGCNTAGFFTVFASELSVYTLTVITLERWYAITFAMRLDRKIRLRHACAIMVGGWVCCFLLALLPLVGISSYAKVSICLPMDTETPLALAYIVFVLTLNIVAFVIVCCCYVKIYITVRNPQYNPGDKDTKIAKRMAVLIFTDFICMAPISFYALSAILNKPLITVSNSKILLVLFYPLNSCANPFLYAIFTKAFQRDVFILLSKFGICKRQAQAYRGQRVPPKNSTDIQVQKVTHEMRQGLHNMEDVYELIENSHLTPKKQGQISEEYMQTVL
Protocol: (§1) Transiently transfected cells were cultured for 48 hours before the cAMP assay. HEK-EM 293 cells stably expressing TSHR, LHCGR or FSHR were seeded into 24-well plates with a density of 2.2×10^5 cells/well 24 hours before the cAMP assay. After removal of growth medium, cells were incubated for 1 hour in HBSS (Cellgro) with 10 mM HEPES (Cellgro) containing 1 mM 3-isobutyl-1-methylxanthine (IBMX) (Sigma) and the ligand of interest in a humidified 5% CO2 incubator at 37° C. The intracellular cAMP content was determined with the cAMP Biotrak Enzymeimmunoassay (EIA) System (GE Healthcare). Data were analyzed using GraphPad Prism 4 for Windows. Receptor expression was measured as described in Jaschke et al., J Biol Chem 281:9841-9844.
The TSH-mediated cAMP response of TSHR was inhibited by a maximum of 70.8±5.5% at 30 μM compound 52. […] Compound 52 has no activity at FSHR.
To exclude the possibility that compound 52 might be acting independently of TSHR by building aggregates with TSH, thereby inhibiting the TSH-induced response, tests were conducted for a possible aggregation between these two ligands. Compound 52 and TSH were preincubated for up to 15 minutes before addition to HEK-EM 293 cells stably expressing TSHR. […] There was no difference in the antagonistic effect whether TSH and compound 52 were preincubated together or not (data not shown) thereby excluding the possibility that its effect was caused by aggregation with TSH.

human TSH receptor = target: T2, human TSH receptor (Homo sapiens, UniProt P16473); experiment: intracellular cAMP accumulation, agonism at TSHR stably expressed in HEK EM 293 cells; type: cell-based; settings: cAMP
T2 construct: expressed in transfected cells
T2 sequence (P16473 21-764): as above
Protocol: With reference to Table 1, exemplary disclosed compounds were evaluated against human TSH receptor and human LHCG receptor that were stably expressed in HEK 293 EM cells as previously described by Libert et al. (Biochem. Biophys. Res. Commun. 1989, 165, 1250-1255); and by Schulz et al. (Mol. Endocrinol. 1999, 13, 181-190). Cell surface expression of TSH receptor and LHCG receptor were determined via FACS analysis (Kleinau, G.; Jäschke, H.; Neumann, S.; Lättig, S.; Paschke, R.; Krause, G. J. Biol. Chem. 2004, 279, 51590-51600). Agonism of compounds 3-20 were determined via measurement of intracellular cyclic AMP accumulation. […] For example, […] certain compounds disclosed herein exerted no discernible effect on the FSH receptor.
Cells were cultured for 48 h in 24-well plates before incubation for 1 h in serum-free DMEM containing 1 mM 3-isobutyl-1-methylxanthine (IBMX) (SIGMA) and bovine TSH (1.8 μM) (SIGMA) or human LH (1000 ng/ml) (Dr. A. Parlow, NIDDK National Hormone and Pituitary Program) or compounds 3-19 (0-100 μM) in a humidified 5% CO2 incubator. Following aspiration of the medium after incubation with compounds, cells were lysed using lysis buffer 1 of the cAMP Biotrak Enzymeimmunoassay (EIA) System (Amersham Biosciences). The cAMP content of the cell lysate was determined using the manufacturer's protocol. The efficacy of receptor activation by small molecule modulators is expressed as % of maximum response of LHCG receptor or TSH receptor to LH or TSH, respectively. The potency (EC50) was obtained from dose response curves (0-100 μM compound) by data analysis with GraphPad Prism 4 for Windows. With reference to FIG. 1, intracellular cAMP production was determined in response to 100 μM of each compound and is expressed as % of maximum response of TSHR/LHCGR to TSH (100 mU/ml)/LH (1000 ng/ml). The data are presented as mean±SEM of two independent experiments, each performed in duplicate.
as §1

TSHR [2] = target: T1, TSHR; experiment: competition with 125I-labeled TSH for binding to TSHR
FSHR = target: T3, FSHR (Homo sapiens, UniProt P23945); experiment: intracellular cAMP accumulation in HEK-EM 293 cells stably expressing FSHR; type: cell-based
T3 sequence (P23945 18-695): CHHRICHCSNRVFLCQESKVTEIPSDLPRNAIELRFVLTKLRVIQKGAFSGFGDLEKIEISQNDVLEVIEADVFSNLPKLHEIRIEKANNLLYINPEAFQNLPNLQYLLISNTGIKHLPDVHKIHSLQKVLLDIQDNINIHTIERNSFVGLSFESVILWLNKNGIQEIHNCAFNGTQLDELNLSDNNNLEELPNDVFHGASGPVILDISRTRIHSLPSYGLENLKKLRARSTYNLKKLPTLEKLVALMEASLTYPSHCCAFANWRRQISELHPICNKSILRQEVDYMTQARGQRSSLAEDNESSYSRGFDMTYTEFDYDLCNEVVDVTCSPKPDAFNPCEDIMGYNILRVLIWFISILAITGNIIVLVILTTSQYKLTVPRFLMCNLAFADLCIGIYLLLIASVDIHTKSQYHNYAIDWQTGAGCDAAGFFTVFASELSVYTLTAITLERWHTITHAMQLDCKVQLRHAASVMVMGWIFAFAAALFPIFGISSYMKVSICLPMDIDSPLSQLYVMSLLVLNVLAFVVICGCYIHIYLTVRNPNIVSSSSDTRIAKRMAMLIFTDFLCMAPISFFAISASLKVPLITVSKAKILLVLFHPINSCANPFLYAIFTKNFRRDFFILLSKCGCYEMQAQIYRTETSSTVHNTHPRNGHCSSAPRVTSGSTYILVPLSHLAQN
Protocol: The expression vectors for human TSHR and LHR are described in Jaschke et al., J Biol Chem 281:9841-9844. The FSHR cDNA in pcDNA3.1 was obtained from the Missouri S&T cDNA Resource Center (www.cDNA.org) and was subcloned into the pcDNA3.1(−)/hygromycin vector. HEK-EM 293 cells were transfected with the cDNA of TSHR, LHCGR or FSHR using FuGENE 6 Transfection reagent (Roche Diagnostics). Hygromycin (250 μg/ml) was used as selection marker.
as §1

**Q.** How did the “cAMP production, fold over TSHR basal activity, M9” value (TSHR mutant M9) turn out when `COC/C=C/c1ccc(-c2nc(SC)nc3sc(C(=O)NC(C)(C)C)c(N)c23)cc1` [Compound 52] was run?
**A.** The value was 13.2±1.7 fold.

**Q.** What about the “antagonistic activity at TSHR in cAMP assay” value (TSHR [1]) of the same compound?
**A.** The value was “antagonist”.

**Q.** And the “selectivity toward TSHR compared to LHCGR and FSHR” value (TSHR [1])?
**A.** The value was “selective toward TSHR”.

**Q.** And the “antagonistic effect with or without preincubation with TSH (aggregation test)” value (TSHR [1]; 30 μM compound, 1.8 nM TSH, preincubated up to 15 minutes)?
**A.** The value was “no difference”.

**Q.** What about the inhibition at 30 µM (TSHR [1]; HEK-EM293, read-out: maximum inhibition of TSH-mediated cAMP response of TSHR) of the same compound?
**A.** The inhibition at 30 µM was 70.8 ± 5.5%.

**Q.** What about the IC50 (TSHR [1]; with EC50 dose of TSH) of the same compound?
**A.** The IC50 was 4.2 µM.

**Q.** And the “agonist activity at TSHR” value (human TSH receptor)?
**A.** The value was “no agonist activity”.

**Q.** And the “competition with 125I-labeled TSH for binding to TSHR” value (TSHR [2])?
**A.** Its value is “does not compete”.

**Q.** What about the “activity at FSHR” value (FSHR) of the same compound?
**A.** Its value is “no activity”.

Reference: patent US20090203716A1, “Pyrimidine low molecular weight ligands for modulating hormone receptors” (The Government of the United States of America as …, priority 2006, published 2009)
